{"source": "patent US9738670B2", "about": "“Pentaaza macrocyclic ring complexes possessing oral bioavailability” (Galera Labs, LLC, priority 2015, dated 2017)", "key": {"[1]": {"experiment": "Intraduodenal (id) bioavailability screen in minipigs, oil formulations, vs iv parent dichloro complex", "type": "in vivo, Gottingen minipig", "settings": "id 10 mg/kg, 10% by weight formulation, AUC0->24 h vs iv 1 mg/kg parent chloro complex", "protocol": "Compounds were screened for oral bioavailability by injecting the formulated prodrugs directly into the duodenum (intraduodenal or id administration) of the minipig test subjects, thus bypassing the acidic environment of the stomach and thereby eliminating potentially misleading oral bioavailability results that could arise from alteration of the test article drug in the acid environment of the stomach.\nThe studies were conducted at Xenometrics LLC (Stillwell, Kans.) and the Id bioavailability was determined using various axial ligand derivative complexes of GC4419, GC4444, GC4403 and GC4401.\n*Where the iv dose is 1 mg of test article drug per kilogram body weight of the mini-pig, and the dose administered id is 10 mg of test article drug per kg body weight of the mini-pig.\nMale Gottingen minipigs (4-5 mo old, 9-12 kg weight) were purchased from Marshall BioResources and housed at Xenometrics. […] The distal end was exteriorized with a reusable accessible hub (see surgical details below). During a recovery period of at least 2 weeks the minipigs were handled daily to acclimate them to the test procedures, i.e., id dosing and blood collections. For each experiment, each minipig received a test article drug dissolved or suspended in an excipient vehicle. […] All dosing experiments were conducted in fasted animals. Food was withdrawn from the minipigs 16 hours before dosing. The minipigs had ad libitum access to water. Dosed minipigs were allowed access to food 6 hour after dosing. The test article was administered at a dose of 10 mg/kg parent drug in 0.1 m L/kg vehicle (e.g., 1.5 mL in 15 kg minipig) as a bolus injection (˜1 minute) via the id cannula. The actual amount of total test article drug administered varied with the formula weight of the prodrug. An equal volume of excipient vehicle was used to flush the cannula after the test article was administered. Approximately 6 hours later, corn oil was used to flush the cannula. After approximately 24 hours post-dose, the catheter was flushed with sterile saline solution and capped. At the following time-points 0.25, 0.5, 1, 2, 4, 8, 24 and 48 hour post-injection, 2 mL blood samples were collected by cranial vena cava puncture (4 mL Sodium heparin Vacutainer, 20 g 1.5″ needle) after the skin surface was wiped with ethanol. The minipig was placed in a sling in a recumbent position without anesthesia for the collection of blood samples. The minipigs were never used more than once per 7 days for experimentation. The blood samples were kept on ice until processed for plasma. Blood samples were centrifuged at 1200×g for ten minutes at 4° C. and plasma samples were transferred to 96 well plate tubes, capped and stored at −20° C. until shipment on dry ice to the analytical laboratory used for measuring the concentration of drug in the plasma. The concentration of the parent manganese pentaaza macrocylic ring complex (independent of the composition of the axial ligands) was measured in plasma using a validated HPLC/MS/MS method that is linear between 50 ng/mL and 20,000 ng/mL.\nThe oils used for preparing the dosing solutions were used as supplied from commercial sources. The Capmul MCM (NF) is a mixture of mono/diglycerides of caprylic/capric acids and was supplied by ABITEC Corporation, Janesville, Wis. The Miglyol 812 N is a mixture of caprylic/capric acid triglycerides and was supplied by Cremer Oleo Division, Eatontown, N.J. Labrafil M 2125 CS (NF) is chemically defined to be linoleoyl polyoxyl-6 glycerides NF and was supplied by Gattefosse, SAINT-PRIEST Cedex, France. Peceol is chemically defined to be the monoglyceride, glyceryl monooleate NF, and was supplied by Gattefosse, SAINT-PRIEST Cedex, France. Maisine 35-1 is chemically defined to be the monoglyceride glyceryl monolinoleate (NF) and was supplied by Gattefosse, SAINT-PRIEST Cedex, France. Labrasol (NF) is chemically defined to be caprylocaproyl polyoxyl-8 glycerides NF and was supplied by Gattefosse, SAINT-PRIEST Cedex, France. […]"}, "[2]": {"tested_on": "experimental model of colitis", "settings": "intraperitoneal (ip) injection, rats; cited from earlier work"}, "[3]": {"tested_on": "radiation-induced oral mucositis", "settings": "ip, hamster; cited from earlier work"}, "[4]": {"tested_on": "lethal total body irradiation", "settings": "ip, adult mice; cited from earlier work"}, "[5]": {"tested_on": "collagen-induced arthritis", "settings": "ip, rat; cited from earlier work"}, "[6]": {"tested_on": "VEGFr inhibitor-induced pulmonary disease", "settings": "ip, rat; cited from earlier work"}, "[7]": {"tested_on": "mouse cancer models", "settings": "ip; cited from earlier work"}, "[8]": {"tested_on": "oral mucositis", "settings": "intravenous (iv) infusion, patients; cited from earlier work"}}, "data": [{"compound": "[Cl-].[Cl-].[Mn+2].c1cc2nc(c1)CN[C@@H]1CCCC[C@H]1NCCN[C@@H]1CCCC[C@H]1NC2", "note": "[GC4403]", "values": [{"measurement": "Mini-Pig BioA", "setting": "[1]; base oil Capmul MCM", "result": 9, "unit": "%"}, {"measurement": "injury to the colon", "setting": "[2]", "result": "significantly reduce the injury to the colon"}, {"measurement": "radiation damage", "setting": "[3]", "result": "attenuate the radiation damage"}, {"measurement": "radiation damage", "setting": "[4]", "result": "attenuate the radiation damage"}, {"measurement": "joint disease", "setting": "[5]", "result": "prevent joint disease"}]}, {"compound": "[Cl][Mn][Cl].c1cc2nc(c1)CN[C@H]1CCCC[C@@H]1NCCN[C@H]1CCCC[C@@H]1NC2", "note": "[GC4419, reference compound]", "values": [{"measurement": "Mini-Pig BioA", "setting": "[1]; base oil Capmul MCM", "result": 9, "unit": "%"}, {"measurement": "Mini-Pig BioA", "setting": "[1]; base oil Labrafil M2125 CS", "result": 7, "unit": "%"}, {"measurement": "Mini-Pig BioA", "setting": "[1]; base oil Maisine 35-1", "result": 8, "unit": "%"}, {"measurement": "Mini-Pig BioA", "setting": "[1]; base oil Miglyol 812N", "result": 8, "unit": "%"}, {"measurement": "Mini-Pig BioA", "setting": "[1]; base oil Peceol", "result": 9, "unit": "%"}, {"measurement": "pulmonary disease", "setting": "[6]", "result": "attenuate VEGFr inhibitor-induced pulmonary disease"}, {"measurement": "anti-tumor activity of co-administered agents", "setting": "[7]", "result": "increase the anti-tumor activity of anti-metabolite and anti-mitotic agents"}, {"measurement": "oral mucositis", "setting": "[8]", "result": "reduce oral mucositis"}]}, {"compound": "Manganese(II)bis-rac-Mandelato[(4aS,13aS,17aS,21aS)-1,2,3,4,4a,5,6,12,13,13a,14,15,16,17,17a,18,19,20,21,21a-Eicosahydro-11,7-nitrilo-7H-dibenzo[b,h][1,4,7,10] tetraazacycloheptadecine-KN5, KN13, KN18, KN21, KN22]- [GC4706]", "values": [{"measurement": "Mini-Pig BioA", "setting": "[1]; base oil Capmul MCM", "result": 28, "unit": "%"}]}, {"compound": "Manganese(II)bis-racemic-2-phenylpropionato[(4aS,13aS,17aS,21aS)-1,2,3,4,4a,5,6,12,13,13a,14,15,16,17,17a,18,19,20,21,21a-Eicosahydro-11,7-nitrilo-7H-dibenzo[b,h][1,4,7,10] tetraazacycloheptadecine-KN5, KN13, KN18, KN21, KN22]- [GC4705]", "values": [{"measurement": "Mini-Pig BioA", "setting": "[1]; base oil Capmul MCM", "result": 23, "unit": "%"}, {"measurement": "Mini-Pig BioA", "setting": "[1]; base oil Peceol", "result": 24, "unit": "%"}]}, {"compound": "Manganese(II)bis-racemic-phenylglycinato[2S, 21S-Dimethyl(4aR,13aR,17aR,21aR)-1,2,3,4,4a,5,6,12,13,13a,14,15,16,17,17a,18,19,20,21,21a-Eicosahydro-11,7-nitrilo-7H-dibenzo[b,h][1,4,7,10] tetraazacycloheptadecine-KN5, KN13, KN18, KN21, KN22]- [GC4715]", "values": [{"measurement": "Mini-Pig BioA", "setting": "[1]; base oil Capmul MCM", "result": 36, "unit": "%"}]}, {"compound": "Manganese(II)bis-racemic-phenylglycinato[6R-Methyl(4aR,13aR,17aR,21aR)-1,2,3,4,4a,5,6,12,13,13a,14,15,16,17,17a,18,19,20,21,21a-Eicosahydro-11,7-nitrilo-7H-dibenzo[b,h][1,4,7,10] tetraazacycloheptadecine-KN5, KN13, KN18, KN21, KN22]- [GC4716]", "values": [{"measurement": "Mini-Pig BioA", "setting": "[1]; base oil Capmul MCM", "result": 34, "unit": "%"}]}, {"compound": "Manganese(II)bis-racemic-phenylglycinato[(4aR,13aR,17aR,21aR)-1,2,3,4,4a,5,6,12,13,13a,14,15,16,17,17a,18,19,20,21,21a-Eicosahydro-11,7-nitrilo-7H-dibenzo[b,h][1,4,7,10] tetraazacycloheptadecine-KN5, KN13, KN18, KN21, KN22]- [GC4717]", "values": [{"measurement": "Mini-Pig BioA", "setting": "[1]; base oil Capmul MCM", "result": 26, "unit": "%"}]}, {"compound": "Manganese(II)bis-racemic-phenylglycinato[(4aS,13aS,17aS,21aS)-1,2,3,4,4a,5,6,12,13,13a,14,15,16,17,17a,18,19,20,21,21a-Eicosahydro-11,7-nitrilo-7H-dibenzo[b,h][1,4,7,10] tetraazacycloheptadecine-KN5, KN13, KN18, KN21, KN22]- [GC4720]", "values": [{"measurement": "Mini-Pig BioA", "setting": "[1]; base oil Capmul MCM", "result": 33, "unit": "%"}, {"measurement": "Mini-Pig BioA", "setting": "[1]; base oil Miglyol 812N", "result": 32, "unit": "%"}]}]}
